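Values below derive from 48-hour exposures of cells grown in 96-well plates, with endpoints linearly interpolated between the two concentrations bracketing the appropriate inhibition level. TGI is the concentration that stops growth completely.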
What was measured:
Test in all cases: growth of human tumour cells (NCI), 48 h
SW-620 colon = tested on: SW-620 colon
ACHN renal = tested on: ACHN renal
SNB-75 CNS = tested on: SNB-75 CNS
A498 renal = tested on: A498 renal
NCI-H460 lung = tested on: NCI-H460 lung
MDA-MB-231 breast = tested on: MDA-MB-231 breast
U251 CNS = tested on: U251 CNS
SF-268 CNS = tested on: SF-268 CNS
LOX IMVI melanoma = tested on: LOX IMVI melanoma
A549 NSCLC = tested on: A549 NSCLC
OVCAR-5 ovarian = tested on: OVCAR-5 ovarian
OVCAR-4 ovarian = tested on: OVCAR-4 ovarian
OVCAR-8 ovarian = tested on: OVCAR-8 ovarian
HCT-116 colon = tested on: HCT-116 colon
UO-31 renal = tested on: UO-31 renal
SK-OV-3 ovarian = tested on: SK-OV-3 ovarian
HCT-15 colon = tested on: HCT-15 colon
MCF7 breast = tested on: MCF7 breast
RPMI-8226 leukemia = tested on: RPMI-8226 leukemia
NCI-H226 lung = tested on: NCI-H226 lung

Cn1c2ccccc2n2c3ccccc3c(=O)c(C#N)c12
TGI (SW-620 colon): > 100 µM
TGI (ACHN renal): 13.6 µM
TGI (SNB-75 CNS): > 96.6 µM
TGI (A498 renal): > 75.8 µM
TGI (NCI-H460 lung): > 61.1 µM
TGI (MDA-MB-231 breast): 41.9 µM
TGI (U251 CNS): 55.5 µM
TGI (SF-268 CNS): > 100 µM
TGI (LOX IMVI melanoma): > 56.1 µM
TGI (A549 NSCLC): > 100 µM
TGI (OVCAR-5 ovarian): > 100 µM
TGI (OVCAR-4 ovarian): > 100 µM
TGI (OVCAR-8 ovarian): > 44.5 µM
TGI (HCT-116 colon): 33.9 µM
TGI (UO-31 renal): > 71.2 µM
TGI (SK-OV-3 ovarian): > 100 µM
TGI (HCT-15 colon): > 100 µM
TGI (MCF7 breast): > 100 µM
TGI (RPMI-8226 leukemia): > 26.7 µM
TGI (NCI-H226 lung): 34.1 µM

CC1(C)CCC[C@@]2(C)C1C(=O)[C@@H]1O[C@]1(C)[C@@H]2CO (stereo not given in full)
TGI (SW-620 colon): > 100 µM
TGI (ACHN renal): > 100 µM
TGI (SNB-75 CNS): 79 µM
TGI (A498 renal): > 100 µM
TGI (NCI-H460 lung): > 100 µM
TGI (MDA-MB-231 breast): > 100 µM
TGI (U251 CNS): 70.8 µM
TGI (SF-268 CNS): > 100 µM
TGI (LOX IMVI melanoma): > 100 µM
TGI (A549 NSCLC): > 100 µM
TGI (OVCAR-5 ovarian): > 100 µM
TGI (OVCAR-4 ovarian): > 100 µM
TGI (OVCAR-8 ovarian): > 100 µM
TGI (HCT-116 colon): > 100 µM
TGI (UO-31 renal): > 100 µM
TGI (SK-OV-3 ovarian): > 100 µM
TGI (HCT-15 colon): > 100 µM
TGI (MCF7 breast): > 100 µM
TGI (RPMI-8226 leukemia): 53.4 µM
TGI (NCI-H226 lung): > 100 µM

CCOC(=O)CCC(NC(=O)c1ccc(Nc2cnc3ccc(C(F)(F)F)cc3n2)cc1)C(=O)OCC (stereo not given)
TGI (SW-620 colon): > 100 µM
TGI (ACHN renal): > 81.2 µM
TGI (SNB-75 CNS): 29.9 µM
TGI (A498 renal): > 79 µM
TGI (NCI-H460 lung): > 100 µM
TGI (MDA-MB-231 breast): 25.2 µM
TGI (U251 CNS): > 100 µM
TGI (SF-268 CNS): > 100 µM
TGI (LOX IMVI melanoma): > 100 µM
TGI (A549 NSCLC): > 100 µM
TGI (OVCAR-5 ovarian): > 100 µM
TGI (OVCAR-4 ovarian): > 74.3 µM
TGI (OVCAR-8 ovarian): 33.8 µM
TGI (HCT-116 colon): > 100 µM
TGI (UO-31 renal): > 100 µM
TGI (SK-OV-3 ovarian): > 60.5 µM
TGI (HCT-15 colon): > 100 µM
TGI (MCF7 breast): > 100 µM
TGI (RPMI-8226 leukemia): > 100 µM
TGI (NCI-H226 lung): > 100 µM

CCCC(=O)OCC1OC(n2cc(F)c(=O)[nH]c2=O)C(F)C1OC(=O)CCC (stereo not given)
TGI (SW-620 colon): > 100 µM
TGI (ACHN renal): > 100 µM
TGI (SNB-75 CNS): > 100 µM
TGI (A498 renal): > 100 µM
TGI (NCI-H460 lung): > 100 µM
TGI (MDA-MB-231 breast): > 100 µM
TGI (U251 CNS): > 100 µM
TGI (SF-268 CNS): > 100 µM
TGI (LOX IMVI melanoma): > 100 µM
TGI (A549 NSCLC): > 100 µM
TGI (OVCAR-5 ovarian): > 100 µM
TGI (OVCAR-4 ovarian): > 100 µM
TGI (OVCAR-8 ovarian): > 100 µM
TGI (HCT-116 colon): > 100 µM
TGI (UO-31 renal): > 100 µM
TGI (SK-OV-3 ovarian): > 100 µM
TGI (HCT-15 colon): > 100 µM
TGI (MCF7 breast): > 100 µM
TGI (RPMI-8226 leukemia): > 100 µM
TGI (NCI-H226 lung): > 100 µM

From PubChem BioAssay (NCI)
